In patent publication US9789100B2, “Compounds as rearranged during transfection (RET) inhibitors” (GlaxoSmithKline Intellectual Property Development Limited, priority 2013, dated 2017):
Structures can show the parent of a compound that is named as a salt.

Biological target: Human RET kinase cytoplasmic domain (Homo sapiens (Human), UniProt P07949)
Assay: RET kinase enzymatic assay
Format: biochemical
Conditions: human RET kinase enzymatic assay (Table 2)
Method: RET Kinase Enzymatic Assay
GST-RET was purified using glutathione sepharose chromatography. The RET kinase enzymatic assay was performed in a total volume of 10 uL with increasing concentrations of RET kinase inhibitor as a singlet in a 384 well format as follows: RET inhibitor compound plates are prepared by adding 100 nL of RET inhibitor at different concentrations to a 384-well plate. 5 μL/well of a 2× enzyme mix (50 mM HEPES (4-(2-hydroxyethyl)-1-piperazineethanesulfonic acid); 1 mM CHAPS (3[(3-cholamidopropyl)dimethylammonio]-1-propanesulfonate); 0.1 mg/mL BSA (bovine serum albumin); 1 mM DTT (dithiothreitol); 0.2 nM RET kinase) was added to the 384-well plate and incubated for 30 minutes at 23° C.

Human RET kinase cytoplasmic domain, sequence (P07949 658-1114): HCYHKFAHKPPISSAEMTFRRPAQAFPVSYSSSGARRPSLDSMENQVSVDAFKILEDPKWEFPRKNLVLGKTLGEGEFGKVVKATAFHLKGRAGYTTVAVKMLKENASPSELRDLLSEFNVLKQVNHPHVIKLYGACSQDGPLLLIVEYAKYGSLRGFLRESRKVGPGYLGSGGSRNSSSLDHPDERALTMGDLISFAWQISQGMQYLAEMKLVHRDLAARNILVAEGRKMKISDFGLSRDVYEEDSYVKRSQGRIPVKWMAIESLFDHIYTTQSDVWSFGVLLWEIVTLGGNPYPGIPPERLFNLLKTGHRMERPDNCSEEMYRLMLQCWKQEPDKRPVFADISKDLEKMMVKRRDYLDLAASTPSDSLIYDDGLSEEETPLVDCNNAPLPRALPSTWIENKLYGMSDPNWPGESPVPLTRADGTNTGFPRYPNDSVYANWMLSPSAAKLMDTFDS

Row | IC50 [nM] | SMILES
1 | < 100 | CCOc1cc(-c2ccc(CC(=O)Nc3ccc(CC(C)(C)CO)c(C(F)(F)F)c3)c(F)c2)c[nH]c1=O [Example 5, 2-(4-(5-Ethoxy-6-oxo-1,6-dihydropyridin-3-yl)-2-fluorophenyl)-N-(4-(3-hydroxy-2,2-dimethylpropyl)-3-(trifluoromethyl)phenyl)acetamide]
2 | < 100 | CCOc1cc(-c2ccc(CC(=O)Nc3cnc(C(C)(C)O)c(C(F)(F)F)c3)c(F)c2)c[nH]c1=O [Example 1, 2-(4-(5-Ethoxy-6-oxo-1,6-dihydropyridin-3-yl)-2-fluorophenyl)-N-(6-(2-hydroxypropan-2-yl)-5-(trifluoromethyl)pyridin-3-yl)acetamide]
3 | 100 to 500 | CCOc1cc(-c2ccc(CC(=O)Nc3ccc(C(N)=O)c(C(F)(F)F)c3)c(F)c2)c[nH]c1=O [Example 23]
4 | < 100 | CCOc1cc(-c2ccc(CC(=O)Nc3cc(C(F)(F)F)cc(C(F)(F)F)c3)c(F)c2)c[nH]c1=O [Example 25]
5 | 500 to 10000 | CCOc1cc(-c2ccc(CC(=O)Nc3cnc(CC#N)c(C(F)(F)F)c3)c(F)c2)c[nH]c1=O [Example 14, N-(6-(Cyanomethyl)-5-(trifluoromethyl)pyridin-3-yl)-2-(4-(5-ethoxy-6-oxo-1,6-dihydropyridin-3-yl)-2-fluorophenyl)acetamide hydrochloride]
6 | < 100 | CCOc1cc(-c2ccc(CC(=O)Nc3ccc(CC(C)(C)CO)c(C(F)(F)F)c3)cc2F)c[nH]c1=O [Example 6, 2-(4-(5-Ethoxy-6-oxo-1,6-dihydropyridin-3-yl)-3-fluorophenyl)-N-(4-(3-hydroxy-2,2-dimethylpropyl)-3-(trifluoromethyl)phenyl)acetamide]
7 | < 100 | CCOc1cc(-c2ccc(CC(=O)Nc3cc(-c4nn[nH]n4)cc(C(F)(F)F)c3)c(F)c2)c[nH]c1=O [Example 44, N-(3-(2H-tetrazol-5-yl)-5-(trifluoromethyl)phenyl)-2-(4-(5-ethoxy-6-oxo-1,6-dihydropyridin-3-yl)-2-fluorophenyl)acetamide]
8 | < 100 | CCOc1cc(-c2ccc(CC(=O)Nc3ccc(Cl)c(C(F)(F)F)c3)c(F)c2)c[nH]c1=O [Example 16, N-(4-Chloro-3-(trifluoromethyl)phenyl)-2-(4-(5-ethoxy-6-oxo-1,6-dihydropyridin-3-yl)-2-fluorophenyl)acetamide]
9 | < 100 | CCOc1cc(-c2ccc(CC(=O)Nc3ccc(OCCO)c(C(F)(F)F)c3)c(F)c2)c[nH]c1=O [Example 13, 2-(4-(5-Ethoxy-6-oxo-1,6-dihydropyridin-3-yl)-2-fluorophenyl)-N-(4-(2-hydroxyethoxy)-3-(trifluoromethyl)phenyl)acetamide]
10 | 500 to 10000 | CCOc1cc(-c2ccc(CC(=O)Nc3cc(F)ccc3F)c(F)c2)c[nH]c1=O [Example 22, N-(2,5-Difluorophenyl)-2-(4-(5-ethoxy-6-oxo-1,6-dihydropyridin-3-yl)-2-fluorophenyl)acetamide]

Row | SMILES | IC50 [nM]
11 | CCOc1cc(=O)[nH]cc1-c1ccc(CC(=O)Nc2ccc(C#N)c(C(F)(F)F)c2)cc1F [Example 7, N-(4-Cyano-3-(trifluoromethyl)phenyl)-2-(4-(4-ethoxy-6-oxo-1,6-dihydropyridin-3-yl)-3-fluorophenyl)acetamide] | < 100
12 | CCOc1ncc(NC(=O)Cc2ccc(-c3c[nH]c(=O)c(OCC)c3)cc2F)cc1C(F)(F)F [Example 2, N-(6-Ethoxy-5-(trifluoromethyl)pyridin-3-yl)-2-(4-(5-ethoxy-6-oxo-1,6-dihydropyridin-3-yl)-2-fluorophenyl)acetamide hydrochloride] | < 100
13 | CCOc1cc(-c2ccc(CC(=O)Nc3ccc(C#N)c(C(F)(F)F)c3)c(F)c2)c[nH]c1=O [Example 9, N-(4-Cyano-3-(trifluoro-methyl)phenyl)-2-(4-(5-ethoxy-6-oxo-1,6-dihydro-pyridin-3-yl)-2-fluorophenyl)acetamide] | < 100
